Laboratory results taken from patent publication US20190133933A1, “FORMULATIONS AND METHODS FOR REDUCTION OF INTRAOCULAR PRESSURE” (CLEARSIDE BIOMEDICAL, INC., priority 2016, published 2019).

Test system: normotensive dogs
Assay: Poststudy efficacy challenge: single topical ocular dose, IOP followed for 24 hours
Assay type: in vivo, female beagle dogs
Procedure: IOP was measured by using a TonoVet according to a study-specific procedure. IOP measurements consisted of three independent readings per eye per time point from each eye. Following approximately 4 weeks of washout, animals in both groups were administered latanoprost in the right eye and phosphate-buffered saline (PBS) in the left eye, and IOP measurements were followed for 24 hours. As applicable, the dosing solution was drawn up into a 1-mL luer-lock syringe using a standard 21-gauge, 1-inch needle. Bubbles were expressed and the standard needle was replaced by a 30-gauge microneedle 1100 μm in length. […] Following the injection, the needle was kept in the eye for approximately 10 seconds before being withdrawn. Upon withdrawal of the microneedle, a cotton-tipped applicator (CTA, dose wipe) was placed over the injection site for approximately 10 seconds. The right eye was dosed first and all post-dose times were based on the time of dosing of the second (left) eye.
Approximately 8 weeks after dose administration, all animals underwent a poststudy efficacy challenge. A positive displacement pipette was used to administer a single 35-μL dose of latanoprost to the right eye and phosphate-buffered saline (PBS) to the left eye. IOP was measured prior to dose administration (approximately −1 and 0 hours), and at 2, 4, 6, 8, and 24 hours following treatment. […]

CC(C)OC(=O)CCC/C=C\C[C@@H]1[C@@H](CC[C@@H](O)CCc2ccccc2)[C@H](O)C[C@@H]1O [Latanoprost]
effect on IOP (right eyes vs PBS left eyes kept at about baseline (FIGS. 13-16)): decreased the IOP
mean maximum effective decrease (Emax) in IOP values (single 35-μL topical ocular dose, right eye, Groups 1 and 2): 3-5 mm Hg
